{
  "source": "patent US5030732A",
  "about": "“Aminoethylphosphinic acid derivatives” (Merck & Co., Inc., priority 1988, dated 1991)",
  "key": {"[1]": {"system": "E. coli DC 2", "assay": "Antibacterial activity, MIC by Method 1 (method of Atherton et al)", "assay_type": "cell-based", "conditions": "for MIC: Escherichia coli, DC2, read-out: Minimum inhibiting concentration (MIC)", "experimental": "(§1) Antibacterial activity was tested by two methods.\n(§2) Minimum inhibiting concentration (MIC, μg/ml) was determined by the method of Atherton et al (Antimicrobial Agent and Chemotherapy 15, 677, 1979).\n(§3) Antibacterial activity: MIC (μ g/ml) [by Method 1]"}, "[2]": {"system": "E. coli TEM 2", "assay": "Antibacterial activity, MIC by Method 1 (method of Atherton et al)", "assay_type": "cell-based", "conditions": "for MIC: Escherichia coli, TEM2, read-out: Minimum inhibiting concentration (MIC)", "experimental": "as §1, §2, §3"}, "[3]": {"system": "E. coli", "assay": "Antibacterial activity, MIC by Method 1 (method of Atherton et al)", "assay_type": "cell-based", "conditions": "for MIC: Escherichia coli, read-out: Minimum inhibiting concentration (MIC)", "experimental": "as §1, §2, §3"}, "[4]": {"system": "Enterococcus cloacae", "assay": "Antibacterial activity, MIC by Method 1 (method of Atherton et al)", "assay_type": "cell-based", "experimental": "as §1, §2, §3"}, "[5]": {"system": "Klebsiella pneumoniae", "assay": "Antibacterial activity, MIC by Method 1 (method of Atherton et al)", "assay_type": "cell-based", "conditions": "for MIC: read-out: Minimum inhibiting concentration (MIC)", "experimental": "as §1, §2, §3"}, "[6]": {"system": "Proteus vulgaris", "assay": "Antibacterial activity, MIC by Method 1 (method of Atherton et al)", "assay_type": "cell-based", "conditions": "for MIC: read-out: Minimum inhibiting concentration (MIC)", "experimental": "as §1, §2, §3"}, "[7]": {"system": "Pseudomonas aeruginosa", "assay": "Antibacterial activity, MIC by Method 1 (method of Atherton et al)", "assay_type": "cell-based", "conditions": "for MIC: read-out: Minimum inhibiting concentration (MIC)", "experimental": "as §1, §2, §3"}, "[8]": {"system": "Salmonella typhimurium", "assay": "Antibacterial activity, MIC by Method 1 (method of Atherton et al)", "assay_type": "cell-based", "conditions": "for MIC: Salmonella enterica, read-out: Minimum inhibiting concentration (MIC)", "experimental": "as §1, §2, §3"}, "[9]": {"system": "Serratia marcescens", "assay": "Antibacterial activity, MIC by Method 1 (method of Atherton et al)", "assay_type": "cell-based", "conditions": "for MIC: read-out: Minimum inhibiting concentration (MIC)", "experimental": "as §1, §2, §3"}, "[10]": {"system": "Staphylococcus aureus", "assay": "Antibacterial activity, MIC by Method 1 (method of Atherton et al)", "assay_type": "cell-based", "conditions": "for MIC: read-out: Minimum inhibiting concentration (MIC)", "experimental": "as §1, §2, §3"}, "[11]": {"system": "Streptococcus faecalis", "assay": "Antibacterial activity, MIC by Method 1 (method of Atherton et al)", "assay_type": "cell-based", "conditions": "for MIC: Enterococcus faecalis, read-out: Minimum inhibiting concentration (MIC)", "experimental": "as §1, §2, §3"}, "[12]": {"assay": "Antibacterial activity, MIC by Method 1 (method of Atherton et al)", "assay_type": "cell-based", "conditions": "Enterococcus cloacae, read-out: Minimum inhibiting concentration (MIC)", "experimental": "as §1, §2, §3"}, "[13]": {"system": "racemase", "conditions": "in words; literature; formed by bacterial peptidase; cited from earlier work"}, "[14]": {"system": "bacterial cell wall synthesis", "conditions": "in words; literature; cited from earlier work"}},
  "data": [
    {"molecule": "(D-1-aminoethyl)(2-L-nor-valylamino -2-L- or -D-carboxyethyl)phosphinic acid [6-2]", "values": [
      {"measurement": "Minimum inhibiting concentration (MIC)", "setting": "[1]", "result": 4, "unit": "µg/mL"},
      {"measurement": "Minimum inhibiting concentration (MIC)", "setting": "[2]", "result": 64, "unit": "µg/mL"},
      {"measurement": "Minimum inhibiting concentration (MIC)", "setting": "[3]", "result": 8, "unit": "µg/mL"},
      {"measurement": "Minimum inhibiting concentration (MIC)", "setting": "[4]", "result": 16, "unit": "µg/mL"},
      {"measurement": "Minimum inhibiting concentration (MIC)", "setting": "[5]", "result": 64, "unit": "µg/mL"},
      {"measurement": "Minimum inhibiting concentration (MIC)", "setting": "[6]", "result": 1, "unit": "µg/mL"},
      {"measurement": "Minimum inhibiting concentration (MIC)", "setting": "[7]", "result": "> 256", "unit": "µg/mL"},
      {"measurement": "Minimum inhibiting concentration (MIC)", "setting": "[8]", "result": 32, "unit": "µg/mL"},
      {"measurement": "Minimum inhibiting concentration (MIC)", "setting": "[9]", "result": 128, "unit": "µg/mL"},
      {"measurement": "Minimum inhibiting concentration (MIC)", "setting": "[10]", "result": 8, "unit": "µg/mL"},
      {"measurement": "Minimum inhibiting concentration (MIC)", "setting": "[11]", "result": 1, "unit": "µg/mL"}
    ]},
    {"molecule": "CCC[C@H](NC(=O)[C@H](C)N)C(=O)NC(CP(=O)(O)C(C)N)C(=O)O", "note": "(stereo partly drawn) [Compound No. 20, (1-Aminoethyl)(2-L-alanyl-L-norvalylamino-2-carboxyethyl)phosphinic acid]", "values": [
      {"measurement": "MIC", "setting": "[12]", "result": 0.5, "unit": "µg/mL"},
      {"measurement": "MIC", "setting": "[1]", "result": "≤ 0.25", "unit": "µg/mL"},
      {"measurement": "MIC", "setting": "[2]", "result": "≤ 0.25", "unit": "µg/mL"},
      {"measurement": "MIC", "setting": "[3]", "result": 0.5, "unit": "µg/mL"},
      {"measurement": "MIC", "setting": "[5]", "result": "≤ 0.25", "unit": "µg/mL"},
      {"measurement": "MIC", "setting": "[6]", "result": 0.5, "unit": "µg/mL"},
      {"measurement": "MIC", "setting": "[7]", "result": 256, "unit": "µg/mL"},
      {"measurement": "MIC", "setting": "[8]", "result": 0.5, "unit": "µg/mL"},
      {"measurement": "MIC", "setting": "[9]", "result": 0.5, "unit": "µg/mL"},
      {"measurement": "MIC", "setting": "[10]", "result": 256, "unit": "µg/mL"},
      {"measurement": "MIC", "setting": "[11]", "result": "≤ 0.25", "unit": "µg/mL"}
    ]},
    {"molecule": "CCC[C@H](N)C(=O)NC(CP(=O)(O)C(C)N)C(=O)O", "note": "(stereo partly drawn) [Compound No. 6-1, (1-Aminoethyl)(2-L-norvalylamino-2-carboxyethyl)phosphinic acid]", "values": [
      {"measurement": "MIC", "setting": "[12]", "result": 64, "unit": "µg/mL"},
      {"measurement": "MIC", "setting": "[1]", "result": 16, "unit": "µg/mL"},
      {"measurement": "MIC", "setting": "[2]", "result": 256, "unit": "µg/mL"},
      {"measurement": "MIC", "setting": "[3]", "result": 16, "unit": "µg/mL"},
      {"measurement": "MIC", "setting": "[6]", "result": 1, "unit": "µg/mL"},
      {"measurement": "MIC", "setting": "[7]", "result": "> 256", "unit": "µg/mL"},
      {"measurement": "MIC", "setting": "[8]", "result": 128, "unit": "µg/mL"},
      {"measurement": "MIC", "setting": "[9]", "result": "> 256", "unit": "µg/mL"},
      {"measurement": "MIC", "setting": "[10]", "result": 32, "unit": "µg/mL"},
      {"measurement": "MIC", "setting": "[11]", "result": 16, "unit": "µg/mL"}
    ]},
    {"molecule": "CC(N)P(=O)(O)O", "note": "(stereo not drawn) [1-aminoethylphosphonic acid]", "values": [
      {"measurement": "inhibition of racemase activity", "setting": "[13]", "result": "inhibiting racemase activity"}
    ]},
    {"molecule": "CSCC[C@H](N)C(=O)NC(CP(=O)(O)C(C)N)C(=O)O", "note": "(stereo partly drawn) [Compound No. 10, (1-Aminoethyl)(2-L-methionylamino-2-carboxyethyl)phosphinic acid]", "values": [
      {"measurement": "MIC", "setting": "[12]", "result": 256, "unit": "µg/mL"},
      {"measurement": "MIC", "setting": "[1]", "result": 32, "unit": "µg/mL"},
      {"measurement": "MIC", "setting": "[2]", "result": 256, "unit": "µg/mL"},
      {"measurement": "MIC", "setting": "[3]", "result": 64, "unit": "µg/mL"},
      {"measurement": "MIC", "setting": "[5]", "result": "> 256", "unit": "µg/mL"},
      {"measurement": "MIC", "setting": "[6]", "result": 8, "unit": "µg/mL"},
      {"measurement": "MIC", "setting": "[7]", "result": "> 256", "unit": "µg/mL"},
      {"measurement": "MIC", "setting": "[8]", "result": "> 256", "unit": "µg/mL"},
      {"measurement": "MIC", "setting": "[9]", "result": "> 256", "unit": "µg/mL"},
      {"measurement": "MIC", "setting": "[10]", "result": 4, "unit": "µg/mL"},
      {"measurement": "MIC", "setting": "[11]", "result": 2, "unit": "µg/mL"}
    ]},
    {"molecule": "CC(N)C(=O)NC(C)P(=O)(O)O", "note": "(stereo not drawn) [alaphosphalin]", "values": [
      {"measurement": "antibacterial action / inhibition of bacterial cell wall synthesis", "setting": "[14]", "result": "antibacterial action"}
    ]}
  ]
}
